Source: patent US4600721A, “Pharmaceutical preparation” (Ludwig Heumann & Co., GmbH, priority 1984, dated 1986)

How the values were obtained:
[1] = system: lipoxygenase and cyclooxygenase; details: known inhibitors, statement in words; cited from earlier work
[2] = system: Acute inflammatory oedema of the paws; test: Rat paw oedema test (carrageenin); assay type: in vivo; details: po, i.g., 1 hour after carrageenin injection, inhibition of increase in paw volume, male rats
Experimental: Acute inflammatory oedema of the paws was induced in male rats (100-120 g) by subplantar injection of 0.1 ml of 2% carrageenin (dissolved in aqueous 0.9% NaCl solution). The volume of the paws was measured with a paw volume measuring instrument 1 hour and 4 hours after the carrageenin injection. The differences in paw volume between the two measurements was calculated. The test substances were suspended in 1% tylose and administered intragastrally through a stomach tube one hour after the carrageenin injection.
The controls were given vehicle alone (1% tylose). The percentage inhibition of increase in volume in the treated animals was obtained from a comparison with the untreated controls. The average inhibitory doses (ED50) were calculated on the basis of the regression graphs.

[3] = system: LTC 4 synthesis and release; test: Inhibition of LTC 4 synthesis and release in vitro; assay type: cell-based
[4] = system: leucocyte migration; test: Leucocyte migration test (carrageenin-soaked polyester sponges); assay type: in vivo, rat; details: male rats, 24 hours
Experimental: Polyester sponges soaked in 2% carrageenin solution were implanted subcutaneously in the neck region of male rats (140-150 g) (see G. A. Higgs et al, Eur. J. Pharmacol. 66, 81 (1980), A. W. Ford-Hutchinson et al, J.Pharmacol. Methods 1, 3 (1978)). The sponges were removed after 24 hours. The leucocytes which had migrated in were washed out with a PBS solution (pH 7.4, 0.5% trypsin, 10 units/ml of heparin) for 30 minutes at 37° C. The sponges were then carefully squeezed and centrifuged (15 minutes, 500 revs/min). The leucocytes in the washing liquid were then counted. The test substances which had been taken up in 1% tylose and the vehicle (1% tylose) were administered intragastrally with a stomach tube immediately after implantation of the sponge and then after 5 hours and after 21 hours. The percentage inhibition of leucocyte migration after administration of the test substances was determined by comparison with the controls. The average inhibitory doses (ED50) were calculated from the regression graphs.

[5] = system: PGE 2 synthesis and release; test: Inhibition of PGE 2 synthesis and release in vitro; assay type: cell-based

SMILES	selective inhibitory action on lipoxygenase or inhibition of both lipoxygenase and cyclooxygenase [1]	ED50 [2]	LTC 4 (% of controls) ([3]; at 10^-5)	LTC 4 (% of controls) ([3]; at 10^-6)	Inhibition of leucocyte migration (control = 0%) ([4]; 40 mg/kg i.g.)	PGE 2 (% of controls) ([5]; at 10^-4)	PGE 2 (% of controls) ([5]; at 10^-5)	PGE 2 (% of controls) ([5]; at 10^-6)	LTC 4 (% of controls) ([3]; at 10^-4)	Inhibition of leucocyte migration (control = 0%) ([4]; 50 mg/kg i.g.)
CC(C(=O)O)c1ccc2oc(-c3ccc(Cl)cc3)nc2c1 (centres unmarked) [Benoxaprofene]	known inhibitors of this kind	–	–	–	–	–	–	–	–	–
CC=NNc1nc2ccccc2s1 [Example 1, N-(benzothiazol-2-yl)-acetaldehyde hydrazone]	–	15 mg/kg	> 100 % of controls	> 100 % of controls	50%	12 % of controls	38 % of controls	89 % of controls	–	–
CC(C)=NNc1nc2ccccc2s1 [Example 2, N-(benzothiazol-2-yl)-acetone hydrazone]	–	10 mg/kg	41 % of controls	89 % of controls	–	20 % of controls	43 % of controls	103 % of controls	16 % of controls	34%
CCC=NNc1nc2ccccc2s1 [Example 3, N-(benzothiazol-2-yl)-propionaldehyde hydrazone]	–	20 mg/kg	> 100 % of controls	> 100 % of controls	–	8 % of controls	37 % of controls	61 % of controls	24 % of controls	–
CCC(C)=NNc1nc2ccccc2s1 [Example 4, N-(benzothiazol-2-yl)-methyl ethyl ketone hydrazone]	–	10 mg/kg	–	–	–	–	–	–	–	–
CC=NNc1nc2ccccc2o1 [Example 5, N-(benzoxazol-2-yl)-acetaldehyde hydrazone]	–	20 mg/kg	–	–	–	–	–	–	–	–
CC(C)=NNc1nc2ccccc2o1 [Example 6, N-(benzoxazol-2-yl)-acetone hydrazone]	–	10 mg/kg	–	–	–	–	–	–	–	–
CCC=NNc1nc2ccccc2o1 [Example 7, N-(benzoxazol-2-yl)-propionaldehyde hydrazone]	–	20 mg/kg	–	–	–	–	–	–	–	–
O=CNNc1nc2ccccc2s1 [Example 8, benzothiazol-2-one-(β-formyl hydrazone)]	–	14 mg/kg	70 % of controls	> 100 % of controls	–	82 % of controls	112 % of controls	105 % of controls	11 % of controls	67%
